Measurements taken from patent US11542256B2, “Vinylheterocycles as Rho-associated coiled-coil kinase (ROCK) inhibitors” (ANGION BIOMEDICA CORP., priority 2017, dated 2023).
pKd: −log10 of the molar value.

Key:
[1] = test system: BDL model, adult male C57BLU6 mice; experiment: Biliary obstruction model (bile duct ligation, BDL); format: in vivo; conditions: 10 mg/kg PO BID; for MAP (mean arterial pressure) versus sham and BDL+vehicle: BDL C57BLU6 mice, day 9, FIG. 1
Procedure: Adult male C57BLU6 mice were submitted to standard bile duct ligation (BDL model: Luo, W., Meng, Y., Ji, H. L., Pan, C. Q., Huang, S., Yu, C. H., Xiao, L. M., Cui, K., Ni, S. Y., Zhang, Z. S., Li, X. Spironolactone lowers portal hypertension by inhibiting liver fibrosis, ROCK-2 activity and activating NO/PKG pathway in the bile-duct-ligated rat. PLoS One 2012, 7(3), e34230) and treated with vehicle (n=7; 50% PEG300+10% tween 80+40% saline, the formulation for Ex. 1) or Ex. 1 (n=3; 10 mg/kg, PO, BID), starting a day after BDL surgery. In this study, animals were sacrificed 9 days after BDL. A subset of BDL animals was treated with fasudil (n=2; 10 mg/kg, PO, BID) to compare hemodynamic effects (on day 9) of a ROCK2-selective inhibitor vs. a dual ROCK1/2 inhibitor in this model of liver injury/disease. A sham group served as control.
The BDL model is a model of cholestatic injury and is associated with both inflammation and biliary sclerosis. This was evident even by day 9 in the BDL+vehicle-treated cohort (p<0.01 vs. sham). […] Treatment with a compound of the invention was also associated with a reduction in biliary inflammation (H&E sections, FIG. 4A) and the necro-inflammatory score (FIG. 4B).

ROCK1 = target: T1, ROCK1 (Homo sapiens, UniProt Q13464); experiment: KINOMEscan KdELECT kinase binding assay, ROCK1; conditions: equilibrium dissociation constant, 11-point 3-fold dilution series
T1 construct: purchased DiscoverX (KINOMEscan KdELECT service); host or cells: E. coli BL21-derived (T7 phage) or HEK-293
T1 sequence (Q13464 whole entry): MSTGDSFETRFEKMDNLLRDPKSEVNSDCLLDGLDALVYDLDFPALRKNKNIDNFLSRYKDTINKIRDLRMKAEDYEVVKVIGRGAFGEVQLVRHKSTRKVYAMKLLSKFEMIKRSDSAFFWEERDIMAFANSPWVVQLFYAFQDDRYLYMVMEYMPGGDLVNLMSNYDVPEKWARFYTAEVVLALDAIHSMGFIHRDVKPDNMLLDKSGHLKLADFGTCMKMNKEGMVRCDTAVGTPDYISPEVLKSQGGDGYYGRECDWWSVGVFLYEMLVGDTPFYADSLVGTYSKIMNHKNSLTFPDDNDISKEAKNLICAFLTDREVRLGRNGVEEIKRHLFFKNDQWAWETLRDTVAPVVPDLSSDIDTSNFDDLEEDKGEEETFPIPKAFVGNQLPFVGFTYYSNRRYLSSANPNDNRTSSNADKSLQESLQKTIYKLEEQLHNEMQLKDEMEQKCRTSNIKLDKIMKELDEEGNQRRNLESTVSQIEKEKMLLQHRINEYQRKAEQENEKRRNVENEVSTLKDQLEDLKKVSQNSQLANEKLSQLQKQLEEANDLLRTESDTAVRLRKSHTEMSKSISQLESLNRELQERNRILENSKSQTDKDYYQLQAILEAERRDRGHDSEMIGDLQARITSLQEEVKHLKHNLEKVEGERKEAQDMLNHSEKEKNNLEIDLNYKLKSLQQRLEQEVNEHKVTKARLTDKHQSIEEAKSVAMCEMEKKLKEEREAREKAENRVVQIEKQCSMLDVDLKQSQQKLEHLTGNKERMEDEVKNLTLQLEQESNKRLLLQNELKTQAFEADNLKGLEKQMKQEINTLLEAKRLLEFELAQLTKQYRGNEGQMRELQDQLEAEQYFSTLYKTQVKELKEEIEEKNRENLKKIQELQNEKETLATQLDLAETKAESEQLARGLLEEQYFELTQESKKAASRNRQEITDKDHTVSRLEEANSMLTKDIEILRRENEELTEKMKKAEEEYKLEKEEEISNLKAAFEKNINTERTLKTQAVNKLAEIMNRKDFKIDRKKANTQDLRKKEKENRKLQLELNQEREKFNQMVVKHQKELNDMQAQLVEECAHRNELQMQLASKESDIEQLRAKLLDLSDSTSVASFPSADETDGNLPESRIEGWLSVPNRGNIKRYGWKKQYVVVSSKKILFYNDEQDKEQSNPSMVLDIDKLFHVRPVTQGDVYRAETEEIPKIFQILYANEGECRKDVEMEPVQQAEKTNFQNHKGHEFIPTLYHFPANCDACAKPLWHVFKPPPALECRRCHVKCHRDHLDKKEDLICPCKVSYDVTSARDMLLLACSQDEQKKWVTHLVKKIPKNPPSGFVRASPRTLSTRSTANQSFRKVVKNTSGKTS
Procedure: (§1) The ROCK1 and ROCK2 kinase binding affinities of compounds in this invention were determined by DiscoverX's KINOMEscan™ KdELECT technology (https://www.discoverx.com/kinomescan-elect-kinase-screening-and-profiling-services): Kinase-tagged T7 phage strains were prepared in an E. coli host derived from the BL21 strain. E. coli were grown to log-phase and infected with T7 phage and incubated with shaking at 32° C. until lysis. The lysates were centrifuged and filtered to remove cell debris. The remaining kinases were produced in HEK-293 cells and subsequently tagged with DNA for qPCR detection. Streptavidin-coated magnetic beads were treated with biotinylated small molecule ligands for 30 minutes at room temperature to generate affinity resins for kinase assays. The liganded beads were blocked with excess biotin and washed with blocking buffer (SeaBlock (Pierce), 1% BSA, 0.05% Tween 20, 1 mM DTT) to remove unbound ligand and to reduce nonspecific binding. […] Test compounds were prepared as […] in 100% DMSO. Kds were determined using an […] 3-fold compound dilution series with three DMSO control points. […] The compounds were then diluted directly into the assays such that the final concentration of DMSO was 0.9%. All reactions performed in polypropylene 384-well plate. Each was a final volume of 0.02 ml. […] The kinase concentration in the eluates was measured by qPCR.

male CD-1 mice = experiment: Mean arterial pressure after bile duct ligation in CD-1 mice; format: in vivo; conditions: BDL CD-1 mice, 10 mg/kg orally BID for 10 days, carotid catheter under isoflurane
Procedure: The experiments were performed on male CD-1 mice (10-11 week-old), purchased from Charles River Laboratories, MA. After arrival, the animals were housed in the Angion Biomedica animal care facility and allowed 5 days for acclimatization in room having an ambient temperature of 23±2° C. and 12 hr dark/light cycle. The animals were fed normal rodent chow and tap water was provided ad libitum. All the animal experimental protocols were approved by the Institutional Animal Care and Use Committee at the Angion Biomedica.
For bile duct ligation (BDL), we performed midline laparotomy of a length of approximately 1.5-2 cm by cutting the cutis plus fascia with a blunt end surgical scissor. The bile duct was then exposed by caudal movement of the gut. […] Animals were allowed to recover under heating pads and were monitored closely for signs of discomfort or pain.
After 24 hrs of bile duct ligation, the CD-1 mice (N=8-10 per group,) were treated with normal saline as vehicle and the Fasudil (10 mg/kg/body weight) and Compound of Ex. 1 (10 mg/kg body weight) groups were treated orally (BID) for 10 days. […] After 10 days of treatment, animals were anesthetized and mean arterial pressure was measured.
Mice were anaesthetized using isoflurane. […] The animals were maintained on heating pads throughout the surgery and temperature was recorded by inserting a temperature probe in the rectum. […]

ROCK2 = target: T2, ROCK2 (Homo sapiens, UniProt O75116); experiment: KINOMEscan KdELECT kinase binding assay, ROCK2; conditions: equilibrium dissociation constant, 11-point 3-fold dilution series
T2 construct: purchased DiscoverX (KINOMEscan KdELECT service); host or cells: E. coli BL21-derived (T7 phage) or HEK-293
T2 sequence (O75116 whole entry): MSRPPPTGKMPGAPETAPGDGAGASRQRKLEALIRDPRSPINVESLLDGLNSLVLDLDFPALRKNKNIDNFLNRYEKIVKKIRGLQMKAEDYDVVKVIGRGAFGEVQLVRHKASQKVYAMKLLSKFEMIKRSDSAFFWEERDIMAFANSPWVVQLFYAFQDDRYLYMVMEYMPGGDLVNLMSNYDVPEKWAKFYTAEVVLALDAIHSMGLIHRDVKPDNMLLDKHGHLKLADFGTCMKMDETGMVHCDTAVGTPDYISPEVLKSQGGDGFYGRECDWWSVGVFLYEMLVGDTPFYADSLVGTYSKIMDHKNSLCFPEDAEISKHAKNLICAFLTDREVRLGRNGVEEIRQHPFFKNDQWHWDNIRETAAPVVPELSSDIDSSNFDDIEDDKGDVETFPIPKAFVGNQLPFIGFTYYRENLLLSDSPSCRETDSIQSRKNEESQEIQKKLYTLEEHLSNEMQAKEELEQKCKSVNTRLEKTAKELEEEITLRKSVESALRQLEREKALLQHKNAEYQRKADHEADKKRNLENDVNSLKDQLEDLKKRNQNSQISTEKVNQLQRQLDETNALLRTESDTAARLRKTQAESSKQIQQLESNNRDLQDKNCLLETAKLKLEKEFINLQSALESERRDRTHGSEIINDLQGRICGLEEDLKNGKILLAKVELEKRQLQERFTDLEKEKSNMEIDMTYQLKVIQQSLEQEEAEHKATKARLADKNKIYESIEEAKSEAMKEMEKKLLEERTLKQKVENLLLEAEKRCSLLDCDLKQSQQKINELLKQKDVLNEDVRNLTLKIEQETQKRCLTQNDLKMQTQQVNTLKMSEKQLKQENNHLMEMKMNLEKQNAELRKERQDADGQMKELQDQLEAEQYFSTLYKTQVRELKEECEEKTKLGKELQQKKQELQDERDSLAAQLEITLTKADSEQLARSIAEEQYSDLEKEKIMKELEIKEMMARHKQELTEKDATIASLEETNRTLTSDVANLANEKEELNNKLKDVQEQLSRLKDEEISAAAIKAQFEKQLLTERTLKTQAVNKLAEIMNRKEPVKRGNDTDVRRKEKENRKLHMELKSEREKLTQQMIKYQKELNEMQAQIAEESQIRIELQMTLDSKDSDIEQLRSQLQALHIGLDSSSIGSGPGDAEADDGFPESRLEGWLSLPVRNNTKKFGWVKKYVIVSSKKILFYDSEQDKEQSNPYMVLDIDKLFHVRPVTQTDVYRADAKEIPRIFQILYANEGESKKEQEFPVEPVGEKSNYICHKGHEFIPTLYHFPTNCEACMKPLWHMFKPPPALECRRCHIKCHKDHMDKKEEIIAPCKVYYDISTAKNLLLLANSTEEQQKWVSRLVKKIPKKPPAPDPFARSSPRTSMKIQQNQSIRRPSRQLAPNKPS
Procedure: as §1

SMILES | MAP (mean arterial pressure) versus sham and BDL+vehicle [1] | pKd (ROCK1) | pKd (ROCK2) | biliary thickening (bile duct wall thickness) ([1]; BDL mice, day 9, H&E sections and quantitative analysis, FIG. 2 and 3) | change (decrease) in mean arterial blood pressure (male CD-1 mice)
COc1ccc2c(c1)CN(c1nccc(-c3nccc(/C=C/c4ccnc5ccccc45)n3)n1)C2 [Ex. 3, (E)-4-(2-(2′-(5-Methoxyisoindolin-2-yl)-[2,4′-bipyrimidin]-4-yl)vinyl)quinoline] | – | < 4.52 | < 4.52 | – | –
N#Cc1ccc2c(c1)CN(c1nccc(-c3nccc(/C=C/c4ccncc4)n3)n1)C2 [Ex. 8, (E)-2-(4-(2-(Pyridin-4-yl)vinyl)-[2,4′-bipyrimidin]-2′-yl)isoindoline-5-carbonitrile] | – | 6.17 | 6.96 | – | –
CNC(=O)COc1ccc2c(c1)CN(c1nccc(-c3nccc(/C=C/c4ccncc4)n3)n1)C2 [Ex. 11, (E)-N-Methyl-2-((2-(4-(2-(pyridin-4-yl)vinyl)-[2,4′-bipyrimidin]-2′-yl)isoindolin-5-yl)oxy)acetamide] | – | 5.96 | 6.96 | – | –
Fc1ccc2c(c1)CN(c1nccc(-c3nccc(/C=C/c4ccncc4)n3)n1)C2 [Ex. 14, (E)-5-Fluoro-2-(4-(2-(pyridine-4-yl)vinyl)-[2,4′-bipyrimidin]-2′-yl)isoindoline] | – | 4.59 | 5.92 | – | –
O=S(=O)(c1cccc2cnccc12)N1CCCNCC1 [fasudil, reference compound] | decreased MAP | – | – | – | ~26 mm Hg

Now from value to molecule, other results behind:

MAP (mean arterial pressure) versus sham and BDL+vehicle [1] | pKd (ROCK1) | pKd (ROCK2) | SMILES | biliary thickening (bile duct wall thickness) ([1]; BDL mice, day 9, H&E sections and quantitative analysis, FIG. 2 and 3) | change (decrease) in mean arterial blood pressure (male CD-1 mice)
not different | < 4.52 | 6.85 | COc1ccc2c(c1)CN(c1nccc(-c3nccc(/C=C/c4ccncc4)n3)n1)C2 [Ex. 1, (E)-5-Methoxy-2-(4-(2-(pyridine-4-yl)vinyl)-[2,4′-bipyrimidin]-2′-yl)isoindoline] | reduction in biliary thickening | did not cause any change
– | 5.10 | 5.74 | COc1ccc2c(c1)CN(c1nccc(-c3nccc(/C=C/c4ccnc5[nH]ccc45)n3)n1)C2 [Ex. 4, (E)-4-(2-(2′-(5-Methoxyisoindolin-2-yl)-[2,4′-bipyrimidin]-4-yl)vinyl)-1H-pyrrolo[2,3-b]pyridine] | – | –
– | < 4.52 | 5.70 | COc1ccc2c(c1)CN(c1nccc(-c3nccc(/C=C/c4ccnc(N)n4)n3)n1)C2 [Ex. 5, (E)-4-(2-(2′-(5-Methoxyisoindolin-2-yl)-[2,4′-bipyrimidin]-4-yl)vinyl)pyrimidin-2-amine] | – | –
– | < 4.52 | 6.92 | Oc1ccc2c(c1)CN(c1nccc(-c3nccc(/C=C/c4ccncc4)n3)n1)C2 [Ex. 6, (E)-2-(4-(2-(Pyridin-4-yl)vinyl)-[2,4′-bipyrimidin]-2′-yl)isoindolin-5-ol] | – | –
– | < 4.52 | 6.04 | O=S(=O)(Oc1ccc2c(c1)CN(c1nccc(-c3nccc(/C=C/c4ccncc4)n3)n1)C2)C(F)(F)F [Ex. 7, (E)-2-(4-(2-(Pyridin-4-yl)vinyl)-[2,4′-bipyrimidin]-2′-yl)isoindolin-5-yl Trifluoromethanesulfonate] | – | –
– | 5.62 | 7.07 | CN(C)CCOc1ccc2c(c1)CN(c1nccc(-c3nccc(/C=C/c4ccncc4)n3)n1)C2 [Ex. 9, (E)-N,N-Dimethyl-2-((2-(4-(2-(pyridin-4-yl)vinyl)-[2,4′-bipyrimidin]-2′-yl)isoindolin-5-yl)oxy)ethanamine] | – | –
– | 4.82 | 6.74 | CCNC(=O)COc1ccc2c(c1)CN(c1nccc(-c3nccc(/C=C/c4ccncc4)n3)n1)C2 [Ex. 12, (E)-N-Ethyl-2-((2-(4-(2-(pyridin-4-yl)vinyl)-[2,4′-bipyrimidin]-2′-yl)isoindolin-5-yl)oxy)acetamide] | – | –
– | 4.89 | 6.89 | CC(C)NC(=O)COc1ccc2c(c1)CN(c1nccc(-c3nccc(/C=C/c4ccncc4)n3)n1)C2 [Ex. 13, (E)-N-Isopropyl-2-((2-(4-(2-(pyridin-4-yl)vinyl)-[2,4′-bipyrimidin]-2′-yl)isoindolin-5-yl)oxy)acetamide] | – | –
